Experimental data taken from patent US4576760A, “Hydroquinone sulfate derivatives and production thereof” (Takeda Chemical Industries, Ltd., priority 1983, dated 1986).

What was measured:
[1] = system: peroxidation of lipids; assay: Inhibition rate of peroxidation of lipids (method of Kornbrust and Mavis; malondialdehyde formed in homogenized rat livers with NADPH/Fe++); assay type: biochemical; details: homogenized livers of rats
Procedure: In accordance with the method of Kornbrust and Mavis [Mol. Pharm., 17, 400 (1980)], inhibition rate of peroxidation of lipids was determined.
Note*: Homogenized livers of rats were incubated in the presence of
NADPH/Fe^++. The amounts of malondialdehyde formed due to the
peroxidation of lipids were compared.

[2] = system: cAMP phosphodiesterase; assay: Action of inhibiting cAMP phosphodiesterase (method of Butcher and Sutherland; inorganic phosphoric acid produced from cyclic AMP); assay type: biochemical; details: phosphodiesterase from beef heart and 5'-nucleotidase
Procedure: In accordance with the method of Butcher and Sutherland [J. Biol. Chem., 237, 1244 (1962)], the action of inhibiting cAMP phosphodiesterase was determined.
**Amounts of inorganic phosphoric acid produced by decomposition of cycli
AMP with phosphodiesterase from beef heart and 5nucleotidase.

Inhibition rate of phosphodiesterase ([2]; 1 × 10^-3 M): 89%
Inhibition rate of phosphodiesterase ([2]; 5 × 10^-4 M): 70%
SMILES: COc1c(O)c(C)c(CCCCCCCCCCO)c(OS(=O)(=O)O)c1OC [6-(10-hydroxydecyl)-2,3-dimethoxy-5-methylhydroquinone 1-sulfate]
Inhibition Rate of Peroxidation of Lipids ([1]; 1 × 10^-4 M): 59%
Inhibition Rate of Peroxidation of Lipids ([1]; 1 × 10^-5 M): 28%
